# “Also recorded” adds a separate entry of the source.
# Legend:
# [1] = test system: pediatric patients exposed to cardiopulmonary bypass in congenital heart defect surgery; assay: Phase 3 double-blind, placebo-controlled trial of citrulline in cardiopulmonary bypass surgery, re-analysed by percent of intraoperative Dose 2 received; type: in vivo
# Protocol: A Phase 3 study was carried out as a double-blind, placebo-controlled trial to confirm the effect. The Phase 3 trial was performed in the US, EU, and Israel, using a modified intent-to-treat population (or modified full analysis set) of 190 patients, of whom 138 were in the US and 52 were ex-US.
# The starting point for the analysis was consideration of the complete modified full analysis set, consisting of all enrolled patients who completed the protocol. […] The Modified Full Analysis Set consists of all enrolled patients who completed the protocol.
# In the study protocol and accompanying pharmacy manual for both studies, citrulline dosing occurs in four distinct phases. Dose 1 is a loading dose added to the cardiopulmonary […] bypass fluids on a mg/kg basis. Dose 3 is a bolus administered following surgery on a mg/kg basis, and Dose 4 is an IV drip at 9 mg/kg/hour. No variation in administration of these doses was introduced during the course of the phase 3 study.
# In contrast, Dose 2, the intraoperative dosing designed to compensate for ultrafiltration, was subject to some variation. Ultrafiltration during cardiac surgery is not standardized, and therefore, it was not possible to completely standardize this dose. The perfusionist estimates the volume of ultrafiltrate removed, as well as the volume of cardioplegia solution. The perfusionist then calculates according to the study pharmacy manual instructions the amount of citrulline to be administered to compensate for the ultrafiltered citrulline in order to maintain a specified therapeutic level.
# Although the therapeutic target level was set at 100 micromolar during the phase 2 study, because of the potential for variation in Dose 2 (which is given intraoperatively to compensate for the routine ongoing ultrafiltration of circulating bypass fluids to reduce the circulating concentrations of inflammatory mediators) and the concern that some patients might inadvertently receive sub-therapeutic intraoperative levels, the target level for Dose 2 in the phase 3 study was increased to 200 micromolar. This was considered to be safe since no adverse effects of citrulline had been reported, even at substantially higher levels in medical use. In order to examine whether variation in Dose 2 could explain the results obtained, the actual dose received, shown as the percent of the targeted dose, was plotted against the composite variable results. Since placebos received no citrulline, they were plotted at the 0% level.
# For the Phase 3 trial, a target intraoperative dose of […] (Dose 2) was chosen to preclude an inadvertent drop below an efficacious level in any patient. The potential for variation in intraoperative dosing arises from the lack of standardization of cardiopulmonary bypass ultrafiltration techniques. […] Nonetheless, expansion of the study to a greater number of sites raised the concern that some sites might inadvertently underdose Dose 2. Given the known innocuous nature of L-citrulline, an endogenous amino acid that is given medicinally in doses an order of magnitude higher than this to urea cycle disorder patients, as well as the well-tolerated high endogenous concentrations of citrulline in hypercitrullinemia patients, there was no concern for erring on the high side of the presumed effective dose.
# To investigate the data in more detail, patients were stratified according to the dose level actually administered intraoperatively. The values obtained for duration of mechanical ventilation (MV), length of inotrope therapy (InoTx) and the composite primary (created for the SAP, based on the longer of the MV or InoTx) in any patient were segmented into groups based on the percent of the 200 μmol target dose actually received by the patient, by comparing patients who had received <65%, <75%, <85%, <95%, and >95% of the calculated target dose. […] Analysis was performed via two-sided Wilcoxon Rank Sum. […]
# nitric oxide production = assay: Nitric oxide production in a murine system, measured via NO metabolites; conditions: increasing citrulline concentration
# From the text: It is important to recall that citrulline is regenerated in the last step of NO production, making negative feedback by citrulline a reasonable hypothesis. Alternatively, an acute increase in NO production, which is known to have a negative feedback effect on NOS (Viziri and Wang, 1999) could explain the results. […] The negative clinical effects in the >95% group for the Phase 3 trial may thus result from one or more negative feedback mechanisms. The negative feedback could result from either the effect of NO or the citrulline itself creating feedback on the system.
# [2] = test system: pediatric patients undergoing surgical procedures involving cardiopulmonary bypass; conditions: 22 patients (11 Tx, 11 PL); Dose 2 100 μmol; cited from earlier work
smiles,measurement,setting,value
"NC(=O)NCCC[C@H](N)C(=O)O [citrulline, L-citrulline]","Composite (longer of MV or InoTx), median","[1]; <65% of target Dose 2, p = 0.0040",1267.0 min
same,"PICU/NICU stay, median","[1]; <65% of target Dose 2, p = 0.0236",2 days
same,"Hospitalization, median","[1]; <65% of target Dose 2, p = 0.0953",4 days
same,Reduction of median Composite vs placebo,[1]; <75% of target Dose 2,42%
same,Reduction of median Inotrope vs placebo,[1]; <75% of target Dose 2,26%
same,Reduction of median Mechanical Ventilation vs placebo,[1]; <75% of target Dose 2,70%
same,"Composite (longer of MV or InoTx), median","[1]; <75% of target Dose 2, p = 0.0025",1267.0 min
same,"Vent (duration of mechanical ventilation), median","[1]; <75% of target Dose 2, p = 0.0129",170.0 min
same,"PICU/NICU stay, median","[1]; <75% of target Dose 2, p = 0.0295",2 days
same,"Hospitalization, median","[1]; <75% of target Dose 2, p = 0.1905",5 days
same,overall length of hospital stay vs placebo,[1]; <75% of the calculated Dose 2,not significantly different
same,"Composite (longer of MV or InoTx), median","[1]; <85% of target Dose 2, p = 0.0029",1283.5 min
same,"PICU/NICU stay, median","[1]; <85% of target Dose 2, p = 0.0332",2 days
same,"Hospitalization, median","[1]; <85% of target Dose 2, p = 0.1369",5 days
same,"Composite (longer of MV or InoTx), median","[1]; <95% of target Dose 2, p = 0.0033",1357.0 min
same,"Inotrope (duration of inotrope therapy), median","[1]; <95% of target Dose 2, p = 0.0242",1300.0 min
same,"PICU/NICU stay, median","[1]; <95% of target Dose 2, p = 0.1232",2 days
same,"Hospitalization, median","[1]; <95% of target Dose 2, p = 0.3169",5 days
same,"Hospitalization, median","[1]; >95% of target Dose 2, p = 0.0006",7 days
same,"PICU/NICU stay, median","[1]; >95% of target Dose 2, p = 0.0034",4 days
same,"Composite (longer of MV or InoTx), median","[1]; >95% of target Dose 2, p = 0.0114",3447.0 min
same,"composite variable, duration of mechanical ventilation and duration of inotrope therapy vs placebo",[1]; >95% of the targeted dose (>190 μmol),worse results when treated with citrulline than placebo patients
same,"Composite (longer of MV or InoTx), median","[1]; All Patients, p = 0.3398 vs placebo (placebo median 2204.0)",1640.0 min
same,"Hospitalization, median","[1]; All Patients, p = 0.3681 vs placebo (placebo median 5)",5 days
same,"PICU/NICU stay, median","[1]; All Patients, p = 0.8484 vs placebo (placebo median 3)",3 days
same,reduction in the length of stay in the PICU or NICU following surgery,[1]; Dose 2 at levels <95% of target,statistically significant reduction of one day
same,"composite variable, duration of mechanical ventilation and duration of inotrope therapy vs placebo","[1]; Dose 2 at levels <95% of target, two-sided Wilcoxon Rank Sum",Statistically significant reduction of all variables; also recorded: highly significant reductions
same,"composite endpoint, treated vs placebo",[1]; complete modified full analysis set,showed no difference
same,production of NO as measured via NO metabolites,nitric oxide production,"increasing levels of citrulline initially facilitate nitric oxide production; however, continued increase in citrulline concentration results in diminished production of NO"
same,primary parameters (duration of MV & InoTx) vs placebo,[2],near-significance

# From patent US20260256724A1, “T[…] FOR […]” (Asklepion Pharmaceuticals LLC, priority 2022, published 2026)
